Laboratory results from PubChem BioAssay (NCI).
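48-hour exposure; five concentrations; linearly interpolated endpoints. GI50 = concentration required for 50% inhibition of growth. TGI: concentration producing complete growth inhibition.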

Tests used:
Assay in all cases: DTP human tumour cell line panel, 48 h
786-0 renal = tested on: 786-0 renal
A498 renal = tested on: A498 renal
A549 NSCLC = tested on: A549 NSCLC
ACHN renal = tested on: ACHN renal
CAKI-1 renal = tested on: CAKI-1 renal
CCRF-CEM leukemia = tested on: CCRF-CEM leukemia
COLO 205 colon = tested on: COLO 205 colon
DU-145 prostate = tested on: DU-145 prostate
EKVX NSCLC = tested on: EKVX NSCLC
HCC-2998 colon = tested on: HCC-2998 colon
HCT-116 colon = tested on: HCT-116 colon
HCT-15 colon = tested on: HCT-15 colon
HL-60(TB) leukemia = tested on: HL-60(TB) leukemia
HOP-62 NSCLC = tested on: HOP-62 NSCLC
HOP-92 NSCLC = tested on: HOP-92 NSCLC
HS 578T breast = tested on: HS 578T breast
HT29 colon = tested on: HT29 colon
IGROV1 ovarian = tested on: IGROV1 ovarian
K-562 leukemia = tested on: K-562 leukemia
KM12 colon = tested on: KM12 colon
LOX IMVI melanoma = tested on: LOX IMVI melanoma
M14 melanoma = tested on: M14 melanoma
MALME-3M melanoma = tested on: MALME-3M melanoma
MCF7 breast = tested on: MCF7 breast
MDA-MB-231 breast = tested on: MDA-MB-231 breast
MDA-MB-435 = tested on: MDA-MB-435
MOLT-4 leukemia = tested on: MOLT-4 leukemia
NCI-H23 lung = tested on: NCI-H23 lung
NCI-H460 lung = tested on: NCI-H460 lung
NCI-H522 lung = tested on: NCI-H522 lung
NCI/ADR-RES ovarian = tested on: NCI/ADR-RES ovarian
OVCAR-3 ovarian = tested on: OVCAR-3 ovarian
OVCAR-4 ovarian = tested on: OVCAR-4 ovarian
OVCAR-5 ovarian = tested on: OVCAR-5 ovarian
OVCAR-8 ovarian = tested on: OVCAR-8 ovarian
PC-3 prostate = tested on: PC-3 prostate
RPMI-8226 leukemia = tested on: RPMI-8226 leukemia
RXF 393 renal = tested on: RXF 393 renal
SF-268 CNS = tested on: SF-268 CNS
SF-295 CNS = tested on: SF-295 CNS
SF-539 CNS = tested on: SF-539 CNS
SK-MEL-2 melanoma = tested on: SK-MEL-2 melanoma
SK-MEL-28 melanoma = tested on: SK-MEL-28 melanoma
SK-MEL-5 melanoma = tested on: SK-MEL-5 melanoma
SK-OV-3 ovarian = tested on: SK-OV-3 ovarian
SN12C renal = tested on: SN12C renal
SNB-19 CNS = tested on: SNB-19 CNS
SNB-75 CNS = tested on: SNB-75 CNS
SR leukemia = tested on: SR leukemia
SW-620 colon = tested on: SW-620 colon
T-47D breast = tested on: T-47D breast
TK-10 renal = tested on: TK-10 renal
U251 CNS = tested on: U251 CNS
UACC-257 melanoma = tested on: UACC-257 melanoma
UACC-62 melanoma = tested on: UACC-62 melanoma
UO-31 renal = tested on: UO-31 renal
BT-549 breast = tested on: BT-549 breast
NCI-H226 lung = tested on: NCI-H226 lung

Molecule CC/C=C\C/C=C/C=C1/C(=O)C=C[C@@H]1C/C=C\CCCC(=O)OC has a GI50 (786-0 renal) of 2.71 µM, a TGI (786-0 renal) of 6.91 µM and a GI50 (A498 renal) of 8.68 µM. It also gave a TGI (A498 renal) of 23 µM, a GI50 (A549 NSCLC) of 5.71 µM and a TGI (A549 NSCLC) of 52.6 µM. The GI50 (ACHN renal) was 1.97 µM, the TGI (ACHN renal) was 3.99 µM and the GI50 (CAKI-1 renal) was 3.22 µM. The TGI (CAKI-1 renal) was 10.7 µM, the GI50 (CCRF-CEM leukemia) was 1.25 µM and the TGI (CCRF-CEM leukemia) was 8.7 µM. It also gave a GI50 (COLO 205 colon) of 2.14 µM, a TGI (COLO 205 colon) of 5.23 µM and a GI50 (DU-145 prostate) of 4.55 µM. For the same molecule, the TGI (DU-145 prostate) was 17.4 µM, the GI50 (EKVX NSCLC) was 3.89 µM and the TGI (EKVX NSCLC) was 20.1 µM. For the same molecule, the GI50 (HCC-2998 colon) was 2.03 µM, the TGI (HCC-2998 colon) was 3.62 µM and the GI50 (HCT-116 colon) was 0.631 µM. For the same molecule, the TGI (HCT-116 colon) was 2.43 µM, the GI50 (HCT-15 colon) was 2.2 µM and the TGI (HCT-15 colon) was 7.89 µM. For the same molecule, the GI50 (HL-60(TB) leukemia) was 2.24 µM, the TGI (HL-60(TB) leukemia) was 12.5 µM and the GI50 (HOP-62 NSCLC) was 2.45 µM. For the same molecule, the TGI (HOP-62 NSCLC) was 5.73 µM, the GI50 (HOP-92 NSCLC) was 3.07 µM and the TGI (HOP-92 NSCLC) was 8.49 µM. It also gave a GI50 (HS 578T breast) of 15.1 µM, a TGI (HS 578T breast) of over 100 µM and a GI50 (HT29 colon) of 2.21 µM. The TGI (HT29 colon) was 5.57 µM, the GI50 (IGROV1 ovarian) was 2.95 µM and the TGI (IGROV1 ovarian) was 10.2 µM. It also gave a GI50 (K-562 leukemia) of 1.38 µM, a TGI (K-562 leukemia) of 20.9 µM and a GI50 (KM12 colon) of 2.24 µM. For the same molecule, the TGI (KM12 colon) was 6.59 µM, the GI50 (LOX IMVI melanoma) was 0.417 µM and the TGI (LOX IMVI melanoma) was 1.79 µM. It also gave a GI50 (M14 melanoma) of 3.22 µM, a TGI (M14 melanoma) of 11.8 µM and a GI50 (MALME-3M melanoma) of 2.5 µM. The TGI (MALME-3M melanoma) was 6.64 µM, the GI50 (MCF7 breast) was 0.5 µM and the TGI (MCF7 breast) was 12.5 µM. The GI50 (MDA-MB-231 breast) was 3.55 µM, the TGI (MDA-MB-231 breast) was 11.3 µM and the GI50 (MDA-MB-435) was 2.05 µM. It also gave a TGI (MDA-MB-435) of 5.08 µM, a GI50 (MOLT-4 leukemia) of 1.36 µM and a TGI (MOLT-4 leukemia) of 11.2 µM. For the same molecule, the GI50 (NCI-H23 lung) was 1.9 µM, the TGI (NCI-H23 lung) was 4.45 µM and the GI50 (NCI-H460 lung) was 3.07 µM. The TGI (NCI-H460 lung) was 8.85 µM, the GI50 (NCI-H522 lung) was 1.78 µM and the TGI (NCI-H522 lung) was 4.24 µM. It also gave a GI50 (NCI/ADR-RES ovarian) of 3.32 µM, a TGI (NCI/ADR-RES ovarian) of over 100 µM and a GI50 (OVCAR-3 ovarian) of 1.54 µM. The TGI (OVCAR-3 ovarian) was 6.35 µM, the GI50 (OVCAR-4 ovarian) was 4.24 µM and the TGI (OVCAR-4 ovarian) was 17.3 µM. It also gave a GI50 (OVCAR-5 ovarian) of 3.32 µM, a TGI (OVCAR-5 ovarian) of 11.1 µM and a GI50 (OVCAR-8 ovarian) of 2.75 µM. For the same molecule, the TGI (OVCAR-8 ovarian) was over 100 µM, the GI50 (PC-3 prostate) was 2.44 µM and the TGI (PC-3 prostate) was 7.1 µM. The GI50 (RPMI-8226 leukemia) was 2.46 µM, the TGI (RPMI-8226 leukemia) was 12.8 µM and the GI50 (RXF 393 renal) was 1.94 µM. It also gave a TGI (RXF 393 renal) of 3.84 µM, a GI50 (SF-268 CNS) of 3.81 µM and a TGI (SF-268 CNS) of 24.7 µM. It also gave a GI50 (SF-295 CNS) of 3.5 µM, a TGI (SF-295 CNS) of 14 µM and a GI50 (SF-539 CNS) of 3.04 µM. The TGI (SF-539 CNS) was 10 µM, the GI50 (SK-MEL-2 melanoma) was 3.35 µM and the TGI (SK-MEL-2 melanoma) was 12.5 µM. For the same molecule, the GI50 (SK-MEL-28 melanoma) was 2.33 µM, the TGI (SK-MEL-28 melanoma) was 6.42 µM and the GI50 (SK-MEL-5 melanoma) was 1.99 µM. It also gave a TGI (SK-MEL-5 melanoma) of 4.05 µM, a GI50 (SK-OV-3 ovarian) of 9.25 µM and a TGI (SK-OV-3 ovarian) of 49.9 µM. For the same molecule, the GI50 (SN12C renal) was 2.7 µM, the TGI (SN12C renal) was 7.79 µM and the GI50 (SNB-19 CNS) was 5.06 µM. It also gave a TGI (SNB-19 CNS) of 19.3 µM, a GI50 (SNB-75 CNS) of 25 µM and a TGI (SNB-75 CNS) of over 100 µM. The GI50 (SR leukemia) was 0.398 µM, the TGI (SR leukemia) was 15.5 µM and the GI50 (SW-620 colon) was 1.11 µM. For the same molecule, the TGI (SW-620 colon) was 7.68 µM, the GI50 (T-47D breast) was 3.9 µM and the TGI (T-47D breast) was 24 µM. For the same molecule, the GI50 (TK-10 renal) was 4.13 µM, the TGI (TK-10 renal) was 15.4 µM and the GI50 (U251 CNS) was 2.35 µM. The TGI (U251 CNS) was 6.83 µM, the GI50 (UACC-257 melanoma) was 3.27 µM and the TGI (UACC-257 melanoma) was 11.4 µM. It also gave a GI50 (UACC-62 melanoma) of 2.24 µM, a TGI (UACC-62 melanoma) of 5.17 µM and a GI50 (UO-31 renal) of 1.64 µM. The TGI (UO-31 renal) was 3.6 µM.

In the case of CN(C)C(=O)C(F)(F)C(c1ccc(Br)cc1)C1C(=O)N(C)C(=O)N(C)C1=O (centres undefined), the TGI (786-0 renal) is reported as over 100 µM, the TGI (A498 renal) is reported as over 100 µM and the TGI (A549 NSCLC) is reported as over 100 µM. It also gave a TGI (ACHN renal) of over 100 µM, a TGI (BT-549 breast) of over 100 µM and a TGI (CAKI-1 renal) of over 100 µM. The TGI (CCRF-CEM leukemia) was over 100 µM, the TGI (COLO 205 colon) was over 100 µM and the TGI (DU-145 prostate) was over 100 µM. The TGI (EKVX NSCLC) was over 100 µM, the TGI (HCC-2998 colon) was over 100 µM and the TGI (HCT-116 colon) was over 100 µM. It also gave a TGI (HCT-15 colon) of over 100 µM, a TGI (HOP-62 NSCLC) of over 100 µM and a TGI (HOP-92 NSCLC) of over 100 µM. For the same molecule, the TGI (K-562 leukemia) was over 100 µM, the TGI (KM12 colon) was over 100 µM and the TGI (LOX IMVI melanoma) was over 100 µM. For the same molecule, the TGI (M14 melanoma) was over 100 µM, the TGI (MCF7 breast) was over 100 µM and the TGI (MDA-MB-231 breast) was over 100 µM. For the same molecule, the TGI (MDA-MB-435) was over 100 µM, the TGI (NCI-H226 lung) was over 100 µM and the TGI (NCI-H23 lung) was over 100 µM. The TGI (NCI-H460 lung) was over 100 µM, the TGI (NCI/ADR-RES ovarian) was over 100 µM and the TGI (OVCAR-3 ovarian) was over 100 µM. It also gave a TGI (OVCAR-4 ovarian) of over 100 µM, a TGI (OVCAR-5 ovarian) of over 100 µM and a TGI (PC-3 prostate) of over 100 µM. The TGI (RPMI-8226 leukemia) was over 100 µM, the TGI (RXF 393 renal) was over 100 µM and the TGI (SF-268 CNS) was over 100 µM. It also gave a TGI (SF-295 CNS) of over 100 µM, a TGI (SK-MEL-2 melanoma) of over 100 µM and a TGI (SK-MEL-28 melanoma) of over 100 µM. The TGI (SK-MEL-5 melanoma) was over 100 µM, the TGI (SK-OV-3 ovarian) was over 100 µM and the TGI (SNB-19 CNS) was over 100 µM. It also gave a TGI (SNB-75 CNS) of over 100 µM, a TGI (SW-620 colon) of over 100 µM and a TGI (T-47D breast) of over 100 µM. The TGI (TK-10 renal) was over 100 µM, the TGI (U251 CNS) was over 100 µM and the TGI (UACC-257 melanoma) was over 100 µM. For the same molecule, the TGI (UACC-62 melanoma) was over 100 µM and the TGI (UO-31 renal) was over 100 µM.
